The subject of experiment [1] is Mus musculus. Briefly: Antitumor activity in Brca1 and p53 deficient K14cre mouse hereditary breast cancer model at 25 mg/kg, iv. Format: functional, organism-based. More on the design: dose 25 mg/kg.
Experiment [2] concerns Mus musculus. Briefly: Antitumor activity in doxorubicin-sensitive Brca1 and p53 deficient mouse mammary tumor cell xenografted mouse hereditary breast cancer model at 25 mg/kg, iv. In kind it is functional, organism-based. More on the design: dose 25 mg/kg.
Experiment [3] is described as follows: Antitumor activity in Brca1 and p53 deficient mouse mammary tumor cell xenografted mouse hereditary breast cancer model assessed as median survival at 25 mg/kg, iv. In kind it is functional.
The test system of another experiment is T*23. Kind of experiment: Antitumor activity in doxorubicin-resistant Brca1 and p53 deficient mouse mammary tumor T*23 cell xenografted mouse hereditary breast cancer model at 25 mg/kg, iv. Set-up: dose 25 mg/kg. Format: functional, organism-based.
Experiment [4] relates to Mus musculus. Kind of experiment: Antitumor activity in Brca1 and p53 deficient K14cre mouse hereditary breast cancer model at 5 mg/kg, iv. More on the design: dose 5 mg/kg. Format: functional, organism-based.
Experiment [5] is described as follows: Antitumor activity in Brca1 and p53 deficient mouse mammary tumor cell xenografted mouse hereditary breast cancer model assessed as median survival at 5 mg/kg, iv. Format: functional.

The source made the active and inactive calls. The rule behind the calls is not given here.

Take `CC(=O)O[C@@]12CO[C@@H]1C[C@H](O)[C@@]1(C)C(=O)[C@H](O)C3=C(C)[C@@H](OC(=O)[C@H](O)[C@@H](NC(=O)OC(C)(C)C)c4ccccc4)C[C@@](O)([C@@H](OC(=O)c4ccccc4)[C@H]21)C3(C)C.O.O.O` [DOCETAXEL]: the outcome in the experiment with Mus musculus [1] and in the experiment with Mus musculus [2] was Active. In experiment [3], the Survival came out at 44 days. Moreover, the result with T*23 was inactive.

As for `COc1cccc2c1C(=O)c1c(O)c3c(c(O)c1C2=O)C[C@@](O)(C(=O)CO)C[C@@H]3O[C@H]1C[C@H](N)[C@H](O)[C@H](C)O1` [DOXORUBICIN], the outcome in the experiment with Mus musculus [4] was Active. Also, the Survival in experiment [5] turned out to be 63 days.

The record behind these values is ChEMBL document CHEMBL1156488, “Selective induction of chemotherapy resistance of mammary tumors in a conditional mouse model for hereditary breast cancer” (2007).
